Experimental data published in PubChem BioAssay (NCI).
Values joined by “and” are separate entries in the source; they are usually repeats but may differ in a detail not shown here. Identical values can stand only once.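 Each compound was tested at five concentrations against cells in 96-well plates for 48 hours. At the GI50, growth is halved. TGI is the concentration that stops growth completely.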

Legend:
Test in all cases: NCI anticancer screen, dose series, 48 h
HT29 colon = system: HT29 colon
SF-268 CNS = system: SF-268 CNS
U251 CNS = system: U251 CNS
SK-MEL-5 melanoma = system: SK-MEL-5 melanoma
MDA-MB-231 breast = system: MDA-MB-231 breast
HCC-2998 colon = system: HCC-2998 colon
HOP-62 NSCLC = system: HOP-62 NSCLC
HS 578T breast = system: HS 578T breast
RPMI-8226 leukemia = system: RPMI-8226 leukemia
CAKI-1 renal = system: CAKI-1 renal

| Structure (SMILES) | GI50 (HT29 colon) | TGI (HT29 colon) | GI50 (SF-268 CNS) | TGI (SF-268 CNS) | GI50 (U251 CNS) | TGI (U251 CNS) | GI50 (SK-MEL-5 melanoma) | TGI (SK-MEL-5 melanoma) | GI50 (MDA-MB-231 breast) | TGI (MDA-MB-231 breast) | GI50 (HCC-2998 colon) | TGI (HCC-2998 colon) | GI50 (HOP-62 NSCLC) | TGI (HOP-62 NSCLC) | GI50 (HS 578T breast) | TGI (HS 578T breast) | GI50 (RPMI-8226 leukemia) | GI50 (CAKI-1 renal) | TGI (CAKI-1 renal) | TGI (RPMI-8226 leukemia) |
| --- | --- | --- | --- | --- | --- | --- | --- | --- | --- | --- | --- | --- | --- | --- | --- | --- | --- | --- | --- | --- |
| c1ccc2cc(C[n+]3ccn(Cc4ccc5ccccc5n4)c3)ccc2c1 | 0.366 µM and 2.55 µM | 3.01 µM and 14.3 µM | 0.434 µM and 3.79 µM | 11.3 µM and 18.3 µM | 0.406 µM and 3.19 µM | 12.4 µM and 15.2 µM | 0.216 µM and 1.21 µM | 0.532 µM and 2.5 µM | 0.432 µM and 2.22 µM | 1.97 µM and 8.2 µM | 0.389 µM and 2.65 µM | 3.76 µM and 12.7 µM | 1.4 µM and 5.05 µM | 7.02 µM and 20.3 µM | 1.25 µM and 4.49 µM | 12.2 µM and 20.3 µM | 0.196 µM and 0.876 µM | – | – | – |
| CCCCCCCCNC(C)C(O)c1ccc(SC(C)C)cc1 (stereo unspecified) | 0.654 µM | 1.91 µM | 1.67 µM | 3.14 µM | – | – | 1.62 µM | 2.99 µM | 1.8 µM | 3.31 µM | 1.58 µM | 3.02 µM | 1.53 µM | 2.87 µM | 1.98 µM | 4.61 µM | 2.06 µM | 1.54 µM | 3.08 µM | 4.91 µM |
| COc1ccccc1NC(=O)C1=C(C)NC(C)=C(C(=O)Nc2ccccc2OC)C1c1cccc2ccccc12 | – | > 100 µM | – | > 100 µM | – | > 100 µM | – | > 100 µM | – | – | – | > 100 µM | – | – | – | – | – | – | > 100 µM | > 100 µM |
| Clc1ccc2nc(Cl)c3ccccc3c2c1 | 19.9 µM | > 100 µM | 17.2 µM | > 100 µM | 3.21 µM | 19.9 µM | > 100 µM | > 100 µM | 7.27 µM | 33.2 µM | > 100 µM | > 100 µM | 11.5 µM | 64.2 µM | 8.21 µM | 72 µM | – | > 100 µM | > 100 µM | – |
| CC(C)C[CH2][Ge]([CH2]CC(C)C)([CH2]CC(C)C)[CH2]CC(C)C | > 100 µM | > 100 µM | > 100 µM | > 100 µM | > 100 µM | > 100 µM | > 100 µM | > 100 µM | > 100 µM | > 100 µM | – | – | > 100 µM | > 100 µM | > 100 µM | > 100 µM | > 100 µM | > 100 µM | > 100 µM | > 100 µM |
| OCC(O)COc1c(Cl)cc(Cl)cc1Cl (stereo unspecified) | – | > 100 µM | – | > 100 µM | – | > 100 µM | – | > 100 µM | – | – | – | > 100 µM | – | > 100 µM | – | – | – | – | > 100 µM | > 64.6 µM |
| ClC1c2ccccc2C2(c3ccccc3)OOC1(c1ccccc1)O2 (stereo unspecified) | – | 3.69 µM | – | 4.19 µM | – | 3.59 µM | – | 2.83 µM | – | – | – | 6.24 µM | – | 22.9 µM | – | – | – | – | 6.19 µM | 3.17 µM |
| CN(C(=O)C12C3C4C1C1C2C3C41C(O)C(C)(C)C)C(C)(C)C (stereo unspecified) | – | > 100 µM | – | > 100 µM | – | > 100 µM | – | > 100 µM | – | – | – | > 100 µM | – | > 100 µM | – | – | – | – | > 100 µM | > 100 µM |
| NC(CCc1ncc(-c2ccccc2)s1)C(=O)O (stereo unspecified) | – | > 100 µM | – | – | – | > 100 µM | – | > 100 µM | – | – | – | > 100 µM | – | – | – | – | – | – | > 100 µM | > 100 µM |
| O=C1CCSC(=S)N1c1ccc(Br)c(Cl)c1 | – | 33.8 µM | – | 44.2 µM | – | 63.7 µM | – | 35.9 µM | – | 70 µM | – | – | – | > 100 µM | – | > 100 µM | – | – | 77.4 µM | > 100 µM |
| Oc1ccc2ccccc2c1N=Nc1ccc(Cl)cc1 | – | > 100 µM | – | > 100 µM | – | > 100 µM | – | > 100 µM | – | > 100 µM | – | – | – | > 100 µM | – | > 100 µM | – | – | > 100 µM | > 100 µM |
| O=C1CCCC(O)=C1SC1=C(O)CCCC1=O | – | > 100 µM | – | > 100 µM | – | > 100 µM | – | > 100 µM | – | – | – | > 100 µM | – | – | – | – | – | – | > 100 µM | > 100 µM |
| CCCC(C)c1c(Cl)nc(Cl)nc1Cl (stereo unspecified) | – | 26.5 µM | – | > 100 µM | – | 21.2 µM | – | 13.9 µM | – | > 100 µM | – | 29.9 µM | – | 20.6 µM | – | > 100 µM | – | – | – | > 100 µM |
| CC(O)C(NC(=O)c1ccccc1)C(=O)N(Cc1ccccc1)Cc1ccccc1 (stereo unspecified) | – | – | – | > 100 µM | – | > 100 µM | – | > 100 µM | – | – | – | > 100 µM | – | > 100 µM | – | – | – | – | 49.9 µM | > 100 µM |
| CCCC(=O)c1ccc(=O)n(C)c1 | – | > 100 µM | – | > 100 µM | – | > 100 µM | – | > 100 µM | – | – | – | > 100 µM | – | > 100 µM | – | – | – | – | > 100 µM | > 100 µM |
| Cc1cn([C@H]2C[C@H](O)[C@@H](CO)O2)c(=O)nc1N | – | > 100 µM | – | > 100 µM | – | > 100 µM | – | > 100 µM | – | > 100 µM | – | – | – | > 100 µM | – | > 100 µM | – | – | > 100 µM | > 100 µM |
| O=C1CCNC(=O)NC1 | – | > 100 µM | – | > 100 µM | – | > 100 µM | – | > 100 µM | – | – | – | – | – | > 100 µM | – | – | – | – | > 100 µM | > 100 µM |
| N#Cc1cc([N+](=O)[O-])ccc1NC(=O)C(=O)C(C(=O)c1ccc2ccccc2c1)C1OCc2ccccc21 (stereo unspecified) | – | 32.5 µM | – | 47.7 µM | – | 16.8 µM | – | 24.8 µM | – | – | – | 22.7 µM | – | 15.6 µM | – | – | – | – | > 50.3 µM | > 66.6 µM |
| c1ccc2c(c1)Sc1ccccc1N2C1CN2CCC1CC2 (stereo unspecified) | – | 53.9 µM | – | 63 µM | – | 30.9 µM | – | 29.9 µM | – | – | – | 29 µM | – | 25.9 µM | – | – | – | – | 33.9 µM | 43.4 µM |
| CC(=O)OCCOCNC(=S)N/N=C(\C)c1cccs1 | – | > 100 µM | – | > 100 µM | – | > 100 µM | – | > 100 µM | – | – | – | > 100 µM | – | > 100 µM | – | – | – | – | – | > 100 µM |
| CC(C)CN1CC(C)C(=O)NC1=O (stereo unspecified) | – | > 100 µM | – | > 100 µM | – | > 100 µM | – | > 100 µM | – | – | – | – | – | > 100 µM | – | – | – | – | > 100 µM | – |
| O=C(Oc1ccc2c(-c3ccccc3)c(C(=O)Nc3ccc(Cl)cc3)c(=O)oc2c1)c1ccccc1 | – | > 100 µM | – | – | – | > 100 µM | – | > 100 µM | – | – | – | – | – | > 100 µM | – | – | – | – | – | > 100 µM |
| C[N+](C)(C)CC(CC(=O)[O-])C1CC1 (stereo unspecified) | – | > 100 µM | – | > 100 µM | – | > 100 µM | – | > 100 µM | – | – | – | – | – | > 100 µM | – | – | – | – | > 100 µM | > 100 µM |
| C=C1CCC2C(C)(CO)C(O)CCC2(C)C1C/C=C1/CCOC1=O (stereo unspecified) | – | > 100 µM | – | – | – | > 100 µM | – | > 100 µM | – | – | – | > 100 µM | – | > 100 µM | – | – | – | – | > 100 µM | > 100 µM |
